Assay results: article PMC5339268, “Ganoderic Acid A Metabolites and Their Metabolic Kinetics” (Frontiers in Pharmacology, 2017)
Read-outs that look alike come from different tables or passages of the source.

Experiments:
[1] = test system: rat liver microsomes (RLMs)
Procedure: (§2) For in vitro metabolites identification, the enzyme incubation was performed in a medium containing 1.0 mg protein /ml RLMs or HLMs, 100 μM of GAA, 3.3 mM of MgCl2, 3.0 mM of NADPH, 3.0 mM of UDPGA and 100 mM of sodium phosphate buffer (pH 7.4). The total volume was 500 μl. The metabolism reaction was initiated by adding NADPH and UDPGA after 10 min preincubation at 37°C. The reaction was maintained at 37°C for 1 h and terminated by adding with 500 μl of ice-cold acetonitrile. The mixture was centrifuged at 20,000 g for 15 min, and 10 μl of the supernatant was directly injected for HPLC-DAD-MS/MS assay. Control samples were prepared as described above by using inactivated enzymes in the incubation system. Each of the incubations was performed in duplicate.
(§3) The identification of metabolites were conducted by a HPLC-DAD-MS/MS system equipped with an Agilent 1,260 HPLC system (Agilent Technologies, Santa Clara, CA, USA), 1,260 diode array detector (DAD) and 4,500 Q-Trap mass spectrometer with electrospray ionization source (AB SCIEX, Framingham, MA, USA). Chromatographic separation was performed on a C18 column (100 × 4.6 mm, 2.4 μm, BDS hypersil, Thermo, PA) maintained at 40°C. The mobile phase consisted of acetonitrile (A) and 0.1% formic acid aqueous solution (B) with following gradient elution at a flow rate of 0.40 ml/min: 0–10 min, 20–35% A; 10–20 min, 35% A; 20–25 min, 35–65% A; 25–30 min, 65% A; 30–35 min, 65–20% A; and 35–45 min, 20% A. The DAD spectral data was collected from 190 to 400 nm. The injection volume of all the tested samples was 10 μl. Mass data were acquired in negative mode under the following conditions, ion spray voltage −4,500 V, ion source temperature 450°C, curtain gas 10 psi, nebulizer gas 60 psi and auxiliary gas 60 psi. Data were collected using Analyst 1.6.2 (Applied Biosystems) in both first quadrupole (Q1) mass scan mode and multiple reaction monitoring (MRM) independent data acquisition (IDA) mode using enhanced product ion scans (EPI) and enhanced resolution (ER) in the ion trap mode.

[2] = test system: human liver microsomes (HLMs)
Procedure: as §2, §3

[3] = test system: human liver microsomes (HLMs); settings: for Vmax of metabolite formation from GAA: HLMs 0.25 mg protein/ml, GAA 1–50 μM, 30 min
Procedure: The formation kinetics of the two main reduction metabolites M2 (GAC2) and M4 (7β,15-dihydroxy-3,11,23-trioxo-lanost-26-oic acid) were determined. The incubations were performed in a medium (100 μl) containing 0.25 mg protein /ml RLMs or HLMs, different concentrations of GAA (1–50 μM), 3.3 mM of MgCl2, 3.0 mM of NADPH and 100 mM of sodium phosphate buffer (pH 7.4). After 10 min of preincubation, GAA at each concentration was incubated with RLMs and HLMs for 5 and 30 min, respectively. The reactions were terminated by adding with 100 μl of ice-cold acetonitrile containing 2 μM GLA used as internal standard (IS). After centrifugation, metabolites in the mixture were analyzed by UFLC-MS/MS detection as described below. The metabolite formation rates vs. GAA concentrations were plotted to obtain the Michaelis-Menten constant (Km) and maximum velocity (Vmax) values of the metabolic reactions. Each of the incubations was performed in triplicate.
The kinetic parameters of GAA metabolism by RLMs or HLMs were calculated by fitting the data to the hyperbolic Michaelis-Menten model: V=Vmax×[S]/Km+[S]
Where Vmax is the maximal velocity of formation, S is the concentration of substrate, Km is the substrate concentration of half maximal velocity, and the intrinsic clearance (CLint) is calculated as Vmax/Km.

[4] = GAA metabolite identification in rat bile, plasma and urine after intravenous administration (HPLC-DAD-MS/MS); settings: for Detected resource 1, rat bile: rat bile 0–4 h after i.v. GAA 20 mg/kg; for Detected resource 3, rat urine: rat urine 0–4 h after i.v. GAA 20 mg/kg; for Detected resource 2, rat plasma: rat plasma 5 and 30 min after i.v. GAA 20 mg/kg
Procedure: Male Sprague-Dawley rats (200 ± 20 g) were supplied by Beijing Vital Laboratory Animal Technology (Beijing, China). The animal experiment was approved by the Animal Ethics Committee at the Institute of Medicinal Plant Development, Chinese Academy of Medical Sciences. […] On the day before the experiment, the rats were suffered with light surgeries. Under anesthesia by an intraperitoneal dose of 10% chloral hydrate at 3.50 ml/kg, a polyethylene catheter (0.50 mm ID, 1.00 mm OD, Portex Limited, Hythe, Kent, England) was cannulated into the right jugular vein for intravenous drug administration and blood collection, and another catheter (0.28 mm ID, 0.61 mm OD, Portex Limited, Hythe, Kent, England) was cannulated into the bile fistul for bile collection. After surgery, the rats were placed individually in metabolism cages and allowed to recover for at least 24 h. The rats were fasted over night with free access to water prior to drug administration.
GAA (25 mg) was dissolved in 500 μl of physiological saline containing 2% sodium carbonate and diluted with physiological saline to make the volume of 5 ml (Cheng C.-R. et al., [2013]). The solution was given to rats (n = 5) intravenously at 20 mg/kg through the jugular vein catheter. After dosing and blood sample collection, 0.2 ml of normal saline with 20 units of heparin was injected into the body through the catheter to flush the catheter and prevent blood coagulation.
Rats were held in metabolism cages, blood was collected into heparinized tubes from the jugular vein before (blank) and at 5 and 30 min post dosing, and then centrifuged at 1,500 g for 10 min for plasma separation. At the same time, bile and urine samples were collected before (blank) and over the period of 0–4 h post dosing. All of the collected blank plasma, blank bile, blank urine, dosing plasma, dosing bile or dosing urine from five rats were pooled together respectively and stored at −20°C until assay.
For plasma, an aliquot of 200 μl sample was mixed with 20 μl HCl solution (1 M), and then extracted with 1.5 ml of ethyl acetate by vortex-mixing for 10 min. The ethyl acetate layer was collected and concentrated to dryness by a vacuum concentrator. The residue was reconstituted in 100 μl 80% methanol and centrifuged at 20,000 g for 15 min. The supernatant was collected for HPLC-DAD-MS/MS assay. For bile, an aliquot of 150 μl sample was mixed with 150 μl 80% methanol and 10 μl 5% formic acid, and then centrifuged at 20,000 g for 15 min. The supernatant was collected for HPLC-DAD-MS/MS assay. For urine, an aliquot of 2 ml sample was loaded on a pretreated ODS-C18 cartridge (Agilent AccuBOND, 500 mg). After washing with 5 ml of water, the cartridge was eluted with 10 ml of methanol. The methanol eluate was collected and concentrated to dryness by a vacuum concentrator at 37°C. The residue was reconstituted in 200 μl 80% methanol and centrifuged at 20,000 g for 15 min, and the supernatant was collected for HPLC-DAD-MS/MS assay.
The identification of metabolites were conducted by a HPLC-DAD-MS/MS system equipped with an Agilent 1,260 HPLC system (Agilent Technologies, Santa Clara, CA, USA), 1,260 diode array detector (DAD) and 4,500 Q-Trap mass spectrometer with electrospray ionization source (AB SCIEX, Framingham, MA, USA). Chromatographic separation was performed on a C18 column (100 × 4.6 mm, 2.4 μm, BDS hypersil, Thermo, PA) maintained at 40°C. The mobile phase consisted of acetonitrile (A) and 0.1% formic acid aqueous solution (B) with following gradient elution at a flow rate of 0.40 ml/min: 0–10 min, 20–35% A; 10–20 min, 35% A; 20–25 min, 35–65% A; 25–30 min, 65% A; 30–35 min, 65–20% A; and 35–45 min, 20% A. The DAD spectral data was collected from 190 to 400 nm. The injection volume of all the tested samples was 10 μl. Mass data were acquired in negative mode under the following conditions, ion spray voltage −4,500 V, ion source temperature 450°C, curtain gas 10 psi, nebulizer gas 60 psi and auxiliary gas 60 psi.

EL4 syngeneic mice = test system: EL4 syngeneic mice; set-up: method as in Radwan et al., 2015; settings: ref Radwan et al., 2015, cited from earlier work
HepG2 cells = test system: HepG2 cells; set-up: method as in Yao et al., 2012; settings: ref Yao et al., 2012; cited from earlier work
[5] = test system: rat liver microsomes (RLMs); experiment: In vitro metabolite identification, GAA incubated with RLMs; settings: for Detected resource 4, RLMs: 100 μM GAA, 1.0 mg protein/ml RLMs, NADPH and UDPGA, 37°C, 1 h
Procedure: as §2, §3

[6] = test system: human liver microsomes (HLMs); experiment: In vitro metabolite identification, GAA incubated with HLMs; settings: for Detected resource 5, HLMs: 100 μM GAA, 1.0 mg protein/ml HLMs, NADPH and UDPGA, 37°C, 1 h
Procedure: as §2, §3

[7] = test system: rat liver microsomes (RLMs); experiment: Formation kinetics of the metabolites M2 and M4 in RLMs; type: in vitro ADME
Procedure: Each of the incubations was performed in triplicate.

CYP3A [8] = experiment: Effect of CYP inhibitors on formation of GAA metabolites in RLMs; type: in vitro ADME; settings: rat, rat liver microsomes (RLMs), probe GAA (10 μM), formation of metabolite M2, RLMs 0.25 mg/ml, ketoconazole 10 μM
Procedure: (§1) GAA (10 μM) was incubated with 0.25 mg/ml RLMs or HLMs in the incubation system as described in Section Formation Kinetics of the Metabolites M2 and M4, in the present or absent of the following CYP enzymes inhibitors, 10 μM α- naphthoflavone (for CYP1A2), 100 μM ticlopidine (for CYP2C19), 10 μM quinidine (for CYP2D), 10 μM ketoconazole (for CYP3A), 100 μM fluconazole (for CYP2C9) and 100 μM diethyldithiocarbamate (for CYP2E1), respectively. The M2 and M4 formation rates in the present and absent of inhibitors were compared. The percentage of inhibition was calculated. Each of the incubations was performed in triplicate.

CYP3A [9] = experiment: Effect of CYP inhibitors on formation of GAA metabolites in HLMs; type: in vitro ADME; settings: human, human liver microsomes (HLMs), probe GAA (10 μM), ketoconazole 10 μM
Procedure: as §1

CC(CC(=O)CC(C)C1CC(O)C2(C)C3C(O)CC4C(C)(C)C(=O)CCC4(C)C3C(=O)CC12C)C(=O)O (stereo not drawn) [Metabolite M4, 7β,15-dihydroxy-3,11,23-trioxo-lanost-26-oic acid]
metabolite found in RLMs incubations [1]: undetected
metabolite detected in HLMs incubations [2]: detected
relative abundance of metabolite in HLMs incubations [2]: abundant
Vmax of metabolite formation from GAA [3]: 29.70 pmol/min/mg
CLint of M4 formation higher than that of M2 ([3]; human, pH 7.4): 15 fold
Clint of metabolite formation from GAA (Vmax/Km) ([3]; human, pH 7.4): 4.85 µL/min/mg

C[C@H](CC(=O)C[C@@H](C)[C@H]1C[C@H](O[C@@H]2O[C@H](C(=O)O)[C@@H](O)[C@H](O)[C@H]2O)[C@@]2(C)C3=C(C(=O)C[C@]12C)[C@@]1(C)CCC(=O)C(C)(C)[C@@H]1C[C@@H]3O)C(=O)O [Metabolite M30, Ganoderic acid A 15-O-glucuronide]
Detected resource 1, rat bile [4]: +
Detected resource 3, rat urine [4]: +

CC(CC(=O)C[C@@H](C)[C@H]1C[C@H](O)[C@@]2(C)C3=C(C(=O)C[C@]12C)[C@@]1(C)CCC(=O)C(C)(C)[C@@H]1CC3=O)C(=O)O (stereo partly shown) [Metabolite M7, Ganoderic acid J]
Detected resource 1, rat bile [4]: +
Detected resource 2, rat plasma [4]: +
Detected resource 3, rat urine [4]: +

C[C@H](CC(=O)C[C@@H](C)[C@H]1C[C@H](O)[C@@]2(C)C3=C(C(=O)C[C@]12C)[C@@]1(C)CCC(=O)C(C)(C)[C@@H]1C[C@@H]3O)C(=O)O [Metabolite M0, Ganoderic acid A]
tumor metastasis to the liver (EL4 syngeneic mice; EL4 syngeneic mice): decrease tumor metastasis to the liver
survival of EL4 syngeneic mice (EL4 syngeneic mice): significantly prolong the survival
chemosensitivity of HepG2 cells to Cisplatin (HepG2 cells): enhance chemosensitivity
Detected resource 4, RLMs [5]: +
Detected resource 5, HLMs [6]: +
Detected resource 1, rat bile [4]: +
Detected resource 2, rat plasma [4]: +
Detected resource 3, rat urine [4]: +

C[C@H](CC(=O)C[C@@H](C)[C@H]1C[C@H](O)[C@@]2(C)C3=C(C(=O)C[C@]12C)[C@@]1(C)CC[C@H](O[C@@H]2O[C@H](C(=O)O)[C@@H](O)[C@H](O)[C@H]2O)C(C)(C)[C@@H]1C[C@@H]3O)C(=O)O [Metabolite M25, Ganoderic acid C2 3-O-glucuronide]
Detected resource 4, RLMs [5]: +
metabolite found in RLMs incubations [5]: detected
Detected resource 1, rat bile [4]: +

CC(CC(=O)CC(C)C1CC(O)C2(C)C3=C(C(=O)CC12C)C1(C)CCC(=O)C(C)(CO)C1CC3O)C(=O)O (stereo not shown) [Metabolite M35, 28(29)-hydroxy ganoderic acid A]
metabolite detected in HLMs incubations [2]: detected

C[C@H](CC(=O)C[C@@H](C)[C@H]1C[C@H](O)[C@@]2(C)C3=C(C(=O)C[C@]12C)[C@@]1(C)CC[C@H](O)C(C)(C)[C@@H]1C[C@@H]3O)C(=O)O [Metabolite M2, Ganoderic acid C2]
Vmax of metabolite formation from GAA ([7]; RLMs 0.25 mg protein/ml, GAA 1–50 μM, 5 min): 185.81 pmol/min/mg
CLint by RLMs higher than by HLMs ([7]; ratio RLMs vs HLMs): 20 fold
Vmax by RLMs higher than by HLMs ([7]; ratio RLMs vs HLMs): 6 fold
relative abundance of metabolite in RLMs incubations [1]: most abundant
metabolite detected in HLMs incubations [2]: detected
relative abundance of metabolite in HLMs incubations [2]: abundant
Vmax of metabolite formation from GAA [3]: 30.18 pmol/min/mg
Clint of metabolite formation from GAA (Vmax/Km) ([3]; human, pH 7.4): 0.33 µL/min/mg
Km of M2 higher than that of M4 ([3]; in HLMs, ratio M2 vs M4): 15 fold
Km by HLMs higher than by RLMs ([3]; ratio HLMs vs RLMs): approximately 3 fold

CC(CC(=O)C[C@@H](C)[C@H]1CC(O)[C@@]2(C)C3=C(C(O[C@@H]4O[C@H](C(=O)O)[C@@H](O)[C@H](O)[C@H]4O)C[C@]12C)[C@@]1(C)CCC(=O)C(C)(C)[C@@H]1CC3=O)C(=O)O (stereo partly shown) [Metabolite M29, 15-hydroxy-3,7,23-trioxo-lanost-8-en-26-oic acid-11-O-glucuronide]
Detected resource 1, rat bile [4]: +
Detected resource 2, rat plasma [4]: +
Detected resource 3, rat urine [4]: +

CC(CC(=O)CC(C)(O)C1CC(O)C2(C)C3=C(C(=O)CC12C)C1(C)CCC(=O)C(C)(C)C1CC3O)C(=O)O (stereo not shown) [Metabolite M11, 20-hydroxy ganoderic acid A]
metabolite found in RLMs incubations [1]: found
metabolite detected in HLMs incubations [2]: detected

CC(CC(=O)C[C@@H](C)[C@H]1CC(=O)[C@@]2(C)C3=C(C(=O)C[C@]12C)[C@@]1(C)CC[C@H](O)C(C)(C)[C@@H]1C[C@@H]3O)C(=O)O (stereo partly shown) [Metabolite M18, Ganoderic acid B]
Detected resource 1, rat bile [4]: +
Detected resource 2, rat plasma [4]: +

CC(CC(=O)CC(C)C1CC(O)C2(C)C3=C(C(=O)C(O)C12C)C1(C)CCC(=O)C(C)(C)C1CC3O)C(=O)O (stereo not shown) [Metabolite M9, 12-hydroxy ganoderic acid A]
metabolite found in RLMs incubations [1]: found
metabolite detected in HLMs incubations [2]: detected

CC(CC(=O)CC(C)C1CC(O)C2(C)C3=C(C(=O)CC12C)C1(C)CCC(O)C(C)(CO)C1CC3O)C(=O)O (stereo not drawn) [Metabolite M13, 3,7β,15,28(29)-tetrahydroxy-11, 23-dioxo-lanost-8-en-26-oic acid]
metabolite found in RLMs incubations [1]: detected

C[C@H](CC(=O)C[C@@H](C)[C@H]1C[C@H](O)[C@@]2(C)C3=C(C(=O)C[C@]12C)[C@@]1(C)CCC(=O)C(C)(C)[C@@H]1C[C@@H]3O[C@@H]1O[C@H](C(=O)O)[C@@H](O)[C@H](O)[C@H]1O)C(=O)O [Metabolite M28, Ganoderic acid A 7-O-glucuronide]
Detected resource 4, RLMs [5]: +
metabolite found in RLMs incubations [5]: found
Detected resource 5, HLMs [6]: +
metabolite detected in HLMs incubations ([6]; HLMs incubations): detected
Detected resource 1, rat bile [4]: +
Detected resource 2, rat plasma [4]: +
Detected resource 3, rat urine [4]: +

CC(CC(=O)CC(C)C1CC(O)C2(C)C3=C(C(=O)C(O)C12C)C1(C)CCC(O)C(C)(C)C1CC3O)C(=O)O (stereo not shown) [Metabolite M15, 12-hydroxy ganoderic acid C2]
metabolite found in RLMs incubations [1]: detected

CC(CC(=O)C[C@@H](C)[C@H]1CC(O[C@@H]2O[C@H](C(=O)O)[C@@H](O)[C@H](O)[C@H]2O)[C@@]2(C)C3=C(C(O)C[C@]12C)[C@@]1(C)CCC(=O)C(C)(C)[C@@H]1CC3=O)C(=O)O (stereo partly shown) [Metabolite M31, 11-hydroxy-3,7,23-trioxo-lanost-8-en-26-oic acid-15-O-glucuronide]
Detected resource 1, rat bile [4]: +
Detected resource 3, rat urine [4]: +

CC(=O)N1CCN(c2ccc(OCC3COC(Cn4ccnc4)(c4ccc(Cl)cc4Cl)O3)cc2)CC1 (stereo not shown) [Ketoconazole, ketoconazole]
inhibition at 10 μM (CYP3A [8]): 19.9%
inhibition at 10 μM (CYP3A [9]; formation of metabolite M2, HLMs 0.25 mg/ml, read-out: inhibition of the formation of M2 in HLMs): 56%
inhibition at 10 μM (CYP3A [9]; formation of metabolite M4, HLMs 0.25 mg/ml, read-out: inhibition of the formation of M4 in HLMs): 38.2%

C[C@H](CC(=O)C[C@@H](C)[C@H]1C[C@H](O[C@@H]2O[C@H](C(=O)O)[C@@H](O)[C@H](O)[C@H]2O)[C@@]2(C)C3=C(C(=O)C[C@]12C)[C@@]1(C)CC[C@H](O)C(C)(C)[C@@H]1C[C@@H]3O)C(=O)O [Metabolite M27, Ganoderic acid C2 15-O-glucuronide]
Detected resource 1, rat bile [4]: +

C[C@H](CC(=O)C[C@@H](C)[C@H]1C[C@H](O)[C@@]2(C)C3=C(C(=O)C[C@]12C)[C@@]1(C)CC[C@H](O)C(C)(C)[C@@H]1C[C@@H]3O[C@@H]1O[C@H](C(=O)O)[C@@H](O)[C@H](O)[C@H]1O)C(=O)O [Metabolite M26, Ganoderic acid C2 7-O-glucuronide]
Detected resource 1, rat bile [4]: +
